Read-outs that look alike come from different tables or passages of the source.
Key:
Rat plasma stability = assay type: in vitro ADME; conditions: for Rat plasma stability: Table 6, unit not given; for half-life at 5 μM: rat, plasma
Experimental: Rat and human plasma were obtained from qualified vendors. […] The assay was performed in duplicate.

[1] = Permeability study using Caco-2 cell monolayers; conditions: human, Caco-2, pH 7.4
Experimental: (§2) CaCO-2 cells were cultured, and a monolayer was developed in-house in 96 well-plates over 18 days using standard protocol. The monolayer was tested for the integrity of the cell monolayer before using.
(§3) Test compounds were added to the transwell insert (apical compartment) to determine the rate of drug transport in the apical to basolateral direction. To determine the rate of drug transport in the basolateral to apical direction, the test compound was added to the receiver plate wells (basolateral compartment). Appropriate amount of HBSS (10 mM HEPES, pH 7.4) was added in both compartments for a final volume of 200 μL. The plates were incubated at 37° C. with shaking at 150 rpm on a rotary shaker for 2 hours. At the end of the transport period, 50 μL from the apical and basolateral wells were collected and 4 volume of cold acetonitrile containing internal standards (IS: 100 nM alprazolam, 200 nM labetalol, and 2 μM ketoprofen) was added to each sample to terminate the reaction. The samples were vortexed and centrifuged at 3,800 g for 20 minutes. An aliquot of 150 μL of the supernatant was used for LC/MS/MS analysis. All samples were analyzed in duplicates. Samples were analyzed through LC/MS/MS for estimating the permeability and efflux of the compounds across Caco-2 cell monolayers.

Caco-2 cell monolayers = assay: Permeability study using Caco-2 cell monolayers; conditions: 2 hours; for Permeability A-B: apical to basolateral; for Permeability B-A: basolateral to apical
Experimental: as §2, §3

[2] = Pharmacokinetic studies in rats: plasma and lung; conditions: rat, single i.v., 2 mg/kg dexamethasone equivalent
Experimental: (§1) Six to eight weeks old Sprague-Dawley rats were procured from a qualified provider. Test compounds were introduced in rats by a single intravenous administration. […] Blood samples (0.1, 0.2 or 0.5 mL) were collected with a 1 mL syringe containing anticoagulants K2EDTA. Blood samples were centrifuged to obtain plasma for analysis. […] After collection at each time point, lung samples were frozen at −75° C. Prior to analysis, a portion of lung sample was weighed and homogenized with phosphate buffer saline. […] Data analysis and pharmacokinetic parameters were generated using WinNonlin software.

[3] = Metabolic stability in rat liver microsomes; assay type: in vitro ADME; conditions: rat liver microsomes, 1 μM, NADPH; Table 6, unit not given
Experimental: Rat liver microsomes were obtained from qualified vendors and metabolic stability of the test compound was determined at 1 μM. The compound was incubated at 37° C. with 0.5 mg microsome/mL in the buffer in the presence of 1 mM NADPH. Aliquots of 50 μL were taken from the reaction solution at 0, 15, 30, 45 and 60 minutes. […] All samples were analyzed in duplicates.

[4] = Chemical stability at pH 4.5 and pH 7.4 in PBS; assay type: physicochemical; conditions: for Chemical Stability, pH 4.5: PBS pH 4.5, 37° C.; for Chemical Stability, pH 4.5 / Chemical Stability, pH 7.4: 5 μM, up to 240 min; for Chemical Stability, pH 7.4: PBS pH 7.4, 37° C.; for Chemical stability: Table 6, pH not stated
Experimental: The assay was performed in duplicate. […] Samples were incubated at 37° C. at 600 rpm.

[5] = biological target: T1, Glucocorticoid receptor (GR) (Homo sapiens, UniProt P04150); assay: TR-FRET GR competitive binding assay; conditions: 0.1 μM
T1 sequence (P04150 1-777): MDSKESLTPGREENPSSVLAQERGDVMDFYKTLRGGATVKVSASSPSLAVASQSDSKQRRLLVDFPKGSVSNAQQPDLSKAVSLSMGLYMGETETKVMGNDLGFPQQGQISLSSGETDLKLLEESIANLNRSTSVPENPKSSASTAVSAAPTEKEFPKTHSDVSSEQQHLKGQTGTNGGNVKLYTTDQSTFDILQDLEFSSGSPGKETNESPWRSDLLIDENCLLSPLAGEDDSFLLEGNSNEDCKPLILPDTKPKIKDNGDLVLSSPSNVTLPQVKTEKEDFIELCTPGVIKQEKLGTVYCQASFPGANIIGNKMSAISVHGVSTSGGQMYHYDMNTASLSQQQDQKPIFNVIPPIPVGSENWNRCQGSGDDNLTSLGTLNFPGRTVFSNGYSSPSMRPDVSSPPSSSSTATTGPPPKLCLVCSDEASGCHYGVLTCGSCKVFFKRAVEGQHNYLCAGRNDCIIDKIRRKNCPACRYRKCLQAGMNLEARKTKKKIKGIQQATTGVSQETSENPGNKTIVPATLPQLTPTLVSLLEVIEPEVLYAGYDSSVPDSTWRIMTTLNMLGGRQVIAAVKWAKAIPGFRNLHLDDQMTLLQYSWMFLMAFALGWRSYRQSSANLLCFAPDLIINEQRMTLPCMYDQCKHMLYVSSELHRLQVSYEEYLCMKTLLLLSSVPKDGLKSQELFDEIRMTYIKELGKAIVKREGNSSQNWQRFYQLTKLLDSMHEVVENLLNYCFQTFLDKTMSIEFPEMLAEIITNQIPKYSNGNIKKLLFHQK
Experimental: Glucocorticoid receptor (GR) binding of prodrugs was determined using TR-FRET GR competitive binding assay. Three-point (0.1, 1 and 10 μM) binding was evaluated for each prodrug.

in vitro = conditions: human, plasma
Experimental: (§4) Rat and human plasma were obtained from qualified vendors. 5 μL of 500 μM of the test article solution was added to 495 μL of pre-incubated human or rat plasma to reach a final concentration of 5 μM. The final concentration of organic solvents was not more than 0.5%. The assay was performed in duplicate. The reaction samples were incubated in a 37° C. water bath with shaking at approximately 60 rpm. 50 μL of the reaction samples were collected at 0, 30, 60, 120 and 180 minutes. The reaction was stopped by adding 300 μL of room temperature quench solution (acetonitrile containing internal standards (IS, 200 nM labetalol, 100 nM alprazolam and 2 μM ketoprofen)). The samples were vortexed for 5 minutes followed by centrifugation of the samples at 3,220 g for 30 minutes at room temperature to precipitate the protein. 100 μL of the supernatant was transferred to a new plate and diluted with 100 μL or 200 μL water according to the LC/MS signal response and peak shape. The samples were mixed well and analyzed using LC/MS/MS. The remaining percentage of parent drug versus reaction time was used to calculate the t1/2 value.

[6] = Sprague-Dawley, rat, in vivo, iv, 2 mg/kg
Experimental: as §1, with “1 ml” for “1 mL”, “of brain” for “of lung”

Experimental for Human plasma stability: as §4

Structure (SMILES)	Rat plasma stability (Rat plasma stability)	half-life at 5 μM (Human plasma stability)	efflux ratio at 2 h [1]	Permeability A-B (Caco-2 cell monolayers)	Permeability B-A (Caco-2 cell monolayers)	Conc in Prodrug in lung ([2]; 15 min)	Conc of Prodrug in plasma ([2]; 15 min)	Conc in Prodrug in lung ([2]; 60 min)	Conc of Prodrug in plasma ([2]; 60 min)	Conc in Prodrug in lung ([2]; 360 min)	Conc of Prodrug in plasma ([2]; 360 min)	RLM [3]	Chemical Stability, pH 4.5 [4]	Chemical Stability, pH 7.4 [4]	Chemical stability [4]	also measured
COc1cccc(NC(=O)[C@@H](N)C(C)C)c1C(=O)OCC(=O)[C@@]1(O)[C@H](C)CC2[C@@H]3CCC4=CC(=O)C=C[C@]4(C)[C@@]3(F)[C@@H](O)C[C@@]21C.Cl (stereo partly drawn) [Compound 9]	>240	> 4 h	279	A-B = 0.025 × 10^−6, cm/s	B-A = 7 × 10^−6, cm/s	992 ± 422	694 ± 83	959 ± 283	244 ± 13	433 ± 212	21 ± 1.5	24	Yes	Yes	Yes	–
CC(C)[C@H](N)C(=O)Nc1ccccc1C1(C(=O)OCC(=O)[C@@]2(O)[C@H](C)C[C@H]3[C@@H]4CCC5=CC(=O)C=C[C@]5(C)[C@@]4(F)[C@@H](O)C[C@@]32C)CC1.Cl [Compound 25]	>240	> 4 h	170	A-B = 0.065 × 10^−6, cm/s	B-A = 11 × 10^−6, cm/s	3895 ± 368	742 ± 96	5827 ± 1483	367 ± 55	1425 ± 509	34 ± 10	38	Yes	Yes	Yes	half-life at 5 μM (Rat plasma stability; read-out: Rat Plasma Stability t½): > 4 h; GR Binding Data [5]: 19%
CC(C)C(C(=O)N1CCCC1C(=O)N(C)CC(C)(C)C(C)C(=O)OCC(=O)[C@@]1(O)[C@H](C)C[C@H]2[C@@H]3CCC4=CC(=O)C=C[C@]4(C)[C@@]3(F)[C@@H](O)C[C@@]21C)N(C)C (stereo partly drawn) [Compound 33]	–	–	–	–	–	–	–	–	–	–	–	–	–	–	–	half-life at 5 μM (in vitro): > 4 h; half-life at 5 μM (Rat plasma stability): > 4 h; Conc of Dex in plasma [6]: 18.8 ± 7.75; Conc of Prodrug in plasma [6]: 6549 ± 1537

Reference: patent publication US20260027131A1, “PRODRUGS, PRODRUG COMPOSITIONS AND RELATED METHODS” (Praesidia Biotherapeutics Inc., priority 2022, published 2026)
